Results: US20220002806A1, “BIOMARKER” (ERBER AKTIENGESELLSCHAFT, priority 2018, published 2022)

Legend:
[1] = system: miRNAs in uterus tissue; experiment: Small RNA sequencing (RNA-Seq) of miRNAs in uterus tissue of ZEN-exposed piglets; type: in vivo, pig (Sus scrofa); conditions: for fold change of ssc-miRNA-542-3p in uterus compared to the control group: highest fold change of the group
From the text: Weaned female piglets (sow: Landrace×Large White, boar: Pietrain; 30+/−2 days old) were obtained from a local producer and individually tagged. Piglets were housed in slatted floor pens under controlled environmental conditions. After an acclimatization period of seven days, twenty-four female piglets were selected based on both body weight and vulva size, and allocated to one of four groups (6 animals/group). Piglets received either blank feed (negative control; Ctrl) or feed contaminated with ZEN in three increasing concentrations (ZEN low: 0.17 mg/kg diet; ZEN medium: 1.5 mg/kg diet; ZEN high: 4.6 mg/kg diet). During the 28-day experimental period, each treatment group was given free access to water and the assigned diet. The pigs were observed daily and weighed weekly.
After 28 days of dietary exposure to the experimental diets, pigs were anesthetized by intramuscular injection of ketamine (0.1 mL/kg body weight (b.w.) Narketan®, Vétoquinol GmbH, Ravensburg, Germany) and azaperone (0.03 mL/kg b.w.; Stresnil®, Janssen-Cilag, Neuss, Germany). Subsequently, animals were euthanized by intracardial injection of T61® (Intervet, UnterschleiBheim, Germany; 0.1 ml/kg b.w.). The whole reproductive tract was collected, weighed and examined for any clinical signs. Small pieces of the corpus uteri and the mid-jejunum were dissected, placed into 1 mL of RNAlater, and stored overnight at 4° C. The next day, all the tissue samples were transferred to −80° C. for long-term storage, and until processed for transcriptomics analysis.
miRNA Extraction and Library Preparation: A total of 18 animals was used for investigations on the miRNA profile in the tissues: 6 from Ctrl, 4 from ZEN low, 4 from ZEN medium, and 4 from ZEN high. About 30 mg of tissue from uterus or jejunum was disrupted via a bead-beating step, and the total RNA, including RNA from approximately 18 nucleotides upwards, was extracted and purified with the miRNeasy Mini Kit (Qiagen, Hilden, Germany), following the manufacturer's instructions. The concentration of RNA was first estimated on the Nanodrop (Termo Scientifc NanoDrop 2000, USA), and again with the Agilent 2100 Bioanalyzer (Agilent Technologies, Germany) during the measurement of the RIN for determining the RNA quality. In total 1 μg of total RNA was used for construction of small RNA sequencing libraries using the NEBNext Multiplex SmallRNA Library preparation set for Illumina (New England Biolabs). Adapter-ligated total RNA was reverse transcribed into cDNA, which was used as template for PCR amplification (15 cycles) using Illumina's SR Primer and Index Primers 1-18. Barcoded DNA libraries were purified using the QIAQuick PCR purification protocol (Qiagen, Hilden, Germany) and quantified using the DNA 1000 high sensitivity chip (Agilent Technologies, Germany). Purified samples were pooled at equimolar (50 nM) concentration. Size selection was performed using gel purification to select for insert sizes between 18 and 50 nucleotides. The final multiplexed (n=18) libraries were sequenced on a NextSeq 500 sequencing instrument according to the manufacturer instructions. Raw data was de-multiplexed and FASTQ files for each sample was generated using the bcl2fastq software (Illumina inc.). FASTQ data was checked using the FastQC online tool (http://www.bioinformatics.babraham.ac.uk/projects/fastqc/).
RNA sequencing (RNA-Seq) Bioinformatics Analysis: Total reads were adapter trimmed using Cutadapt and quality filtered (Q-Score >30) using the FastQC tool. Trimmed and quality filtered reads were aligned to reference miRNA sequences in miRBase release 21 (www.mirbase.org; Kozomora and Griffiths-Jones. 2014. Nucleid Acids Research, 42, D68-D73) using bowtie2. Subsequently, reads were mapped against the Sus scrofa genome assembly Sscrofa10.2 as well as Ensembl small non-coding RNA reference databases. Reads were normalized to the total read count per library to generate tags per million (TPM) values. […]

[2] = biological target: estrogen receptors β (Homo sapiens, UniProt Q92731); conditions: Zinedine et al. 2007; cited from earlier work
Chain of estrogen receptors β (Q92731 whole entry): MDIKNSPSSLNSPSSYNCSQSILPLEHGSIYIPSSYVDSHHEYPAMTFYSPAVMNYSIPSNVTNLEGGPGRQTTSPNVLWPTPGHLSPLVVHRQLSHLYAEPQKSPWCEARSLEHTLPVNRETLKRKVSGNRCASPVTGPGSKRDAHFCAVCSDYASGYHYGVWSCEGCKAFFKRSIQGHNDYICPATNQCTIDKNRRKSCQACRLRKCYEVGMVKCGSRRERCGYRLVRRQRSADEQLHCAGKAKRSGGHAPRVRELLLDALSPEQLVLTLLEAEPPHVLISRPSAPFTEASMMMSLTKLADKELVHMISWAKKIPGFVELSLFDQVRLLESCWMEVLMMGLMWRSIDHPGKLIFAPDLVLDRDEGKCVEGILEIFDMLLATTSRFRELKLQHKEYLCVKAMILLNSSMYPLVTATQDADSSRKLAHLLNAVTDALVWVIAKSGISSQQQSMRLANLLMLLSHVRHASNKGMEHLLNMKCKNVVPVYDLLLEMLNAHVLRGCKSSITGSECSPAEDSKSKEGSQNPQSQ

[3] = Ctrl vs ZEN high (4.6 mg/kg diet), 28 days in feed
[4] = Ctrl vs ZEN low (0.17 mg/kg diet), 28 days in feed
[5] = ZEN high group (4.6 mg/kg diet) vs Ctrl, 28 days in feed
[6] = both ZEN medium (1.5 mg/kg diet) and ZEN high (4.6 mg/kg diet) group vs Ctrl, 28 days in feed

C[C@H]1CCCC(=O)CCC/C=C/c2cc(O)cc(O)c2C(=O)O1 [ZEN, (2E,11S)-15,17-dihydroxy-11-methyl-12-oxabicyclo[12.4.0]octadeca-1(18),2,14,16-tetraene-7,13-dione]
log2 fold change of hsa-miR-135b-5p in uterus [1, 3]: log2 fold change Ctrl vs ZEN high ≤ −1.5,
log2 fold change of hsa-miR-301a-5p in uterus [1, 3]: log2 fold change Ctrl vs ZEN high ≤ −1.5,
log2 fold change of put-miR-300 in uterus [1, 3]: ZEN high ≤ −1.5, TPM > 10
log2 fold change of ssc-miR-22-3p in uterus [1, 3]: Ctrl vs ZEN high ≥ 1.5; TPM > 10
log2 fold change of ssc-miR-129a in uterus [1, 3]: log2 fold change Ctrl vs ZEN high < −1.5,
log2 fold change of ssc-miR-135 in uterus [1, 3]: ZEN high ≤ −1.5, TPM > 10
log2 fold change of ssc-miR-143-5p in uterus [1, 3]: ZEN high ≥ −1.5, TPM > 10
log2 fold change of ssc-miR-187 in uterus [1, 3]: Crtrl vs ZEN high ≤ −1.5
log2 fold change of ssc-miR-204 in uterus [1, 3]: log2 fold change Ctrl vs ZEN high ≤ −1.5,
log2 fold change of ssc-miR-432-5p in uterus [1, 3]: change Ctrl vs ZEN high ≥ 1.5, specificity
log2 fold change of ssc-miR-493-3p in uterus [1, 3]: log2 fold change Ctrl vs ZEN high ≥ 1.5,
log2 fold change of ssc-miR-542-3p in uterus [1, 3]: ZEN high ≥ 1.5, TPM > 10
log2 fold change of ssc-miR-758 in uterus [1, 3]: change Ctrl vs ZEN high ≥ 1.5
log2 fold change of hsa-miR-135b-5p in uterus [1, 4]: log2 fold change Ctrl vs ZEN low ≤ −0.3,
log2 fold change of hsa-miR-301a-5p in uterus [1, 4]: log2 fold change Ctrl vs ZEN low ≤ −0.3,
log2 fold change of ssc-miR-22-3p in uterus [1, 4]: change Ctrl vs ZEN low ≥ 0.3, log2 fold
log2 fold change of ssc-miR-133a-5p in uterus [1, 4]: change Ctrl vs ZEN low ≥ 0.3, TPM > 10
log2 fold change of ssc-miR-195 in uterus [1, 4]: change Ctrl vs ZEN low ≥ 0.3, TPM > 10
log2 fold change of ssc-miR-486 in uterus [1, 4]: change Ctrl vs ZEN low ≥ 0.3, TPM > 10
log2 fold change of ssc-miR-493-5p in uterus [1, 4]: change Ctrl vs ZEN low ≥ 0.3, TPM > 10,
log2 fold change of ssc-miR-497 in uterus [1, 4]: change Ctrl vs ZEN low ≥ 0.3, TPM > 10
log2 fold change of ssc-miR-708-3p in uterus [1, 4]: low ≤ −0.3, TPM > 10
log2 fold change of ssc-miR-187 in uterus ([1]; Ctrl vs ZEN medium (1.5 mg/kg diet), 28 days in feed): vs ZEN medium ≤ −0.3, log2 fold change
fold change of ssc-miRNA-542-3p in uterus compared to the control group ([1]; ZEN high (4.6 mg/kg diet)): +12.6
fold change of ssc-miRNA-204 in uterus compared to the control group ([1]; ZEN high (4.6 mg/kg diet), lowest fold change of the group): −4.1
Response to ZEN treatment in uterus: hsa-miR-135b-5p [1, 5]: Significantly decreased in ZEN high
Response to ZEN treatment in uterus: hsa-miR-301a-5p [1, 5]: Significantly decreased in ZEN high
Response to ZEN treatment in uterus: ssc-miR-22-3p [1, 5]: Significantly increased in ZEN high group,
Response to ZEN treatment in uterus: ssc-miR-22-5p [1, 5]: Significantly increased in ZEN high group,
Response to ZEN treatment in uterus: ssc-miR-34a [1, 5]: Significantly increased in ZEN high group
Response to ZEN treatment in uterus: ssc-miR-125a [1, 5]: Significantly decreased in ZEN high
Response to ZEN treatment in uterus: ssc-miR-125b [1, 5]: Significantly decreased in ZEN high
Response to ZEN treatment in uterus: ssc-miR-127 [1, 5]: Significantly increased in ZEN high group
Response to ZEN treatment in uterus: ssc-miR-129a [1, 5]: Significantly decreased in ZEN high
Response to ZEN treatment in uterus: ssc-miR-133a-5p [1, 5]: Significantly increased in ZEN high group,
Response to ZEN treatment in uterus: ssc-miR-135 [1, 5]: Significantly decreased in ZEN high
Response to ZEN treatment in uterus: ssc-miR-136 [1, 5]: Significantly increased in ZEN high group,
Response to ZEN treatment in uterus: ssc-miR-140-3p [1, 5]: Significantly increased in ZEN high group,
Response to ZEN treatment in uterus: ssc-miR-142-3p [1, 5]: Significantly increased in ZEN high group,
Response to ZEN treatment in uterus: ssc-miR-146b [1, 5]: Significantly decreased in ZEN high
Response to ZEN treatment in uterus: ssc-miR-182 [1, 5]: Significantly increased in ZEN high group
Response to ZEN treatment in uterus: ssc-miR-183 [1, 5]: Significantly increased in ZEN high group,
Response to ZEN treatment in uterus: ssc-miR-195 [1, 5]: Significantly increased in ZEN high group,
Response to ZEN treatment in uterus: ssc-miR-204 [1, 5]: Significantly decreased in ZEN high
Response to ZEN treatment in uterus: ssc-miR-369 [1, 5]: Significantly increased in ZEN high group
Response to ZEN treatment in uterus: ssc-miR-378 [1, 5]: Significantly increased in ZEN high group
Response to ZEN treatment in uterus: ssc-miR-432-5p [1, 5]: Significantly increased in ZEN high group,
Response to ZEN treatment in uterus: ssc-miR-455-3p [1, 5]: Significantly increased in ZEN high group,
Response to ZEN treatment in uterus: ssc-miR-455-5p [1, 5]: Significantly increased in ZEN high group,
Response to ZEN treatment in uterus: ssc-miR-486 [1, 5]: Significantly increased in ZEN high group,
Response to ZEN treatment in uterus: ssc-miR-493-3p [1, 5]: Significantly increased in ZEN high group,
Response to ZEN treatment in uterus: ssc-miR-493-5p [1, 5]: Significantly increased in ZEN high group,
Response to ZEN treatment in uterus: ssc-miR-708-3p [1, 5]: Significantly decreased in ZEN high
Response to ZEN treatment in uterus: ssc-miR-758 [1, 5]: Significantly increased in ZEN high group,
Response to ZEN treatment in uterus: put-miR-300 ([1]; ZEN medium (1.5 mg/kg diet) and high (4.6 mg/kg diet) group vs Ctrl, 28 days in feed): Significantly decreased in ZEN medium
fold change of ssc-miRNA-542-3p in uterus compared to the control group ([1]; ZEN medium (1.5 mg/kg diet)): +3.9
fold change of ssc-miRNA-187 in uterus compared to the control group ([1]; ZEN medium (1.5 mg/kg diet), lowest fold change of the group): −3.4
Response to ZEN treatment in uterus: ssc-miR-1 [1, 6]: Significantly increased in both ZEN
Response to ZEN treatment in uterus: ssc-miR-143-5p [1, 6]: Significantly increased in both ZEN
Response to ZEN treatment in uterus: ssc-miR-181c [1, 6]: Significantly decreased in both ZEN
Response to ZEN treatment in uterus: ssc-miR-187 [1, 6]: Significantly decreased in both ZEN
Response to ZEN treatment in uterus: ssc-miR-206 [1, 6]: Significantly increased in both ZEN
Response to ZEN treatment in uterus: ssc-miR-335 [1, 6]: Significantly decreased in both ZEN
Response to ZEN treatment in uterus: ssc-miR-424-5p [1, 6]: Significantly increased in both ZEN
Response to ZEN treatment in uterus: ssc-miR-450a [1, 6]: Significantly increased in both ZEN
Response to ZEN treatment in uterus: ssc-miR-450b-5p [1, 6]: Significantly increased in both ZEN
Response to ZEN treatment in uterus: ssc-miR-450c-5p [1, 6]: Significantly increased in both ZEN
Response to ZEN treatment in uterus: ssc-miR-497 [1, 6]: Significantly increased in both ZEN
Response to ZEN treatment in uterus: ssc-miR-503 [1, 6]: Significantly increased in both ZEN
Response to ZEN treatment in uterus: ssc-miR-542-3p [1, 6]: Significantly increased in both ZEN
Response to ZEN treatment in uterus: ssc-miR-7135-3p [1, 6]: Significantly increased in both ZEN
agonist action on estrogen receptor β [2]: partial agonist
